Test [1] is filed under the species Mus musculus. In words: Effect on central nervous system in mouse assessed as decrease in motor activity. It counts as functional, organism-based.
For test [2], the species on record is Mus musculus. In words: Effect on central nervous system in mouse assessed as ataxia. It counts as functional, organism-based.

Calls of active or inactive are those of the source. The rule behind the calls is not given here.

Take `O=C1OCc2c1cc1ccc3c(c1c2-c1ccc2c(c1)OCO2)OCO3`: the outcome in the test listed under Mus musculus [1] and in the test filed under Mus musculus [2] was inactive.
Regarding `COc1cc(OC)c2c(-c3ccc4c(c3)OCO4)c3c(c(OC)c2c1O)COC3=O`, the result in the test filed under Mus musculus [1] and in the test listed under Mus musculus [2] was inactive.
`COc1cc([C@H]2c3cc(O)c(OC)cc3C[C@@H](CO)[C@@H]2CO)ccc1O`: the outcome in the test listed under Mus musculus [1] and in the test filed under Mus musculus [2] was inactive.

Values taken from ChEMBL document CHEMBL1151347, “Lignans From Justicia flava” (J Nat Prod, 1980).
